Laboratory results: US11230547B2, “Purine inhibitors of human phosphatidylinositol 3-kinase delta” (Merck Sharp & Dohme Corp., priority 2017, dated 2022)

What was measured:
[1] = biological target: PI3Kalpha (Homo sapiens (Human), UniProt P42336); assay: HTRF PI3K biochemical assay, alpha isoform (selectivity versus delta); conditions: relative ratio PI3K-alpha IC50 value / PI3K-delta IC50 value
How it was run: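 Recombinant human PI3Kα (0.5 nM) preincubated 15 min with compound, then reacted 1 h at room temperature with 100 uM ATP and 5 uM PIP2. PIP3 formation detected by HTRF competition with biotin-PIP3 for GST-GRP1 PH domain (Eu/APC, 665/620 nm); product lowers signal.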

[2] = biological target: PI3Kdelta (Homo sapiens (Human), UniProt O00329); assay: HTRF PI3K biochemical assay, delta isoform; conditions: 0.3 nM enzyme, 100 uM ATP, 5 uM PIP2, form screened per table
PI3Kdelta, sequence (O00329 whole entry, the tested form may be a part, canonical isoform): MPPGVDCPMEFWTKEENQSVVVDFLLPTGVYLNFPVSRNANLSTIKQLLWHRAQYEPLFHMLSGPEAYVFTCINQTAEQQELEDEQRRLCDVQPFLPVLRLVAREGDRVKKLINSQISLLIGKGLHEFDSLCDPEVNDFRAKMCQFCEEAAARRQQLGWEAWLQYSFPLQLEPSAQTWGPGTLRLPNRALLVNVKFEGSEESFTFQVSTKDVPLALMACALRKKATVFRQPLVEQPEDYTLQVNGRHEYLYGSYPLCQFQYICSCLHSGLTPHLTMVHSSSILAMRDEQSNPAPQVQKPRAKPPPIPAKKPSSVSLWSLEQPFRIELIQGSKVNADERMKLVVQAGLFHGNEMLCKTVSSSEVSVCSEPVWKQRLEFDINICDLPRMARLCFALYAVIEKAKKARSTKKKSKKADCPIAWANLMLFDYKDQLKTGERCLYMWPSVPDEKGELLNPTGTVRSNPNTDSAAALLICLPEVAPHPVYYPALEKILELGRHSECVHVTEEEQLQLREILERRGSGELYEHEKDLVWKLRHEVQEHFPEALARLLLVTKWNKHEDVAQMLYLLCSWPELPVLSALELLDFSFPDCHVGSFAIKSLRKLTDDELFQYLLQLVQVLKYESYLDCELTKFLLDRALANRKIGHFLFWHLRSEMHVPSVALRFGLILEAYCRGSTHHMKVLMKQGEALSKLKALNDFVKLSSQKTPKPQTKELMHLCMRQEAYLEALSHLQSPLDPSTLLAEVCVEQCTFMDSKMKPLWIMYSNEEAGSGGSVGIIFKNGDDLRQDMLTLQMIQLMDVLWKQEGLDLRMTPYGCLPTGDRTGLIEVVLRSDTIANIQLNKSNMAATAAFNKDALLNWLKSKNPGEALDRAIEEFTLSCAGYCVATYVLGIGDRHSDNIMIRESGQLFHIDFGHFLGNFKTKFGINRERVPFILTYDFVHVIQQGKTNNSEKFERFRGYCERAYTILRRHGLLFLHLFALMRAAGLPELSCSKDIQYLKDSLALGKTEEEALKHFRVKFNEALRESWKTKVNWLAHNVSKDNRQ
PI3Kdelta, sequence (P27986 whole entry partner, the tested form may be a part, canonical isoform): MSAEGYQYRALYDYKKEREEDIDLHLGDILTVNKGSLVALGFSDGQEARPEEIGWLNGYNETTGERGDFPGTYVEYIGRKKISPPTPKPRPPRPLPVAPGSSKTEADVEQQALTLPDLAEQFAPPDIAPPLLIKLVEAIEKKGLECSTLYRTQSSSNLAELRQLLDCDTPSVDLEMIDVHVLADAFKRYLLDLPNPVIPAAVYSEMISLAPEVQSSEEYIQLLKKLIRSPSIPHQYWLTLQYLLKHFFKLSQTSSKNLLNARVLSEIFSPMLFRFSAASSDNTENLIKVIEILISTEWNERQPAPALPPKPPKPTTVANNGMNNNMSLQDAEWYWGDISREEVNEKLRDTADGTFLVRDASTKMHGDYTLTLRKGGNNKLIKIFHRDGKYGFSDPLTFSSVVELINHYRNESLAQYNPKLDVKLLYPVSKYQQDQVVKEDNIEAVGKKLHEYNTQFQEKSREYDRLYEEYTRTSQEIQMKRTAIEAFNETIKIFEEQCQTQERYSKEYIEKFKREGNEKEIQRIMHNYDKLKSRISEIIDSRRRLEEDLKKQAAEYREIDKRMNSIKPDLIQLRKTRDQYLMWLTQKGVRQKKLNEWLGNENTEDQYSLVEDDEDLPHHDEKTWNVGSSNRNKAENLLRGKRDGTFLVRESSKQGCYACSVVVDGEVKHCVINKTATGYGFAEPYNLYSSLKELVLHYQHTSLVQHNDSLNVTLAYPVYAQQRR
How it was run: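 PI3Kδ at 0.3 nM preincubated 15 min with compound, then reacted 1 h at room temperature with 100 uM ATP and 5 uM PIP2. PIP3 product detected by competitive HTRF displacing biotin-PIP3 from GST-GRP1 PH domain, so signal falls with activity. 10-point 3-fold dose response.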

PI3Kalpha, sequence (P42336 whole entry, the tested form may be a part, canonical isoform): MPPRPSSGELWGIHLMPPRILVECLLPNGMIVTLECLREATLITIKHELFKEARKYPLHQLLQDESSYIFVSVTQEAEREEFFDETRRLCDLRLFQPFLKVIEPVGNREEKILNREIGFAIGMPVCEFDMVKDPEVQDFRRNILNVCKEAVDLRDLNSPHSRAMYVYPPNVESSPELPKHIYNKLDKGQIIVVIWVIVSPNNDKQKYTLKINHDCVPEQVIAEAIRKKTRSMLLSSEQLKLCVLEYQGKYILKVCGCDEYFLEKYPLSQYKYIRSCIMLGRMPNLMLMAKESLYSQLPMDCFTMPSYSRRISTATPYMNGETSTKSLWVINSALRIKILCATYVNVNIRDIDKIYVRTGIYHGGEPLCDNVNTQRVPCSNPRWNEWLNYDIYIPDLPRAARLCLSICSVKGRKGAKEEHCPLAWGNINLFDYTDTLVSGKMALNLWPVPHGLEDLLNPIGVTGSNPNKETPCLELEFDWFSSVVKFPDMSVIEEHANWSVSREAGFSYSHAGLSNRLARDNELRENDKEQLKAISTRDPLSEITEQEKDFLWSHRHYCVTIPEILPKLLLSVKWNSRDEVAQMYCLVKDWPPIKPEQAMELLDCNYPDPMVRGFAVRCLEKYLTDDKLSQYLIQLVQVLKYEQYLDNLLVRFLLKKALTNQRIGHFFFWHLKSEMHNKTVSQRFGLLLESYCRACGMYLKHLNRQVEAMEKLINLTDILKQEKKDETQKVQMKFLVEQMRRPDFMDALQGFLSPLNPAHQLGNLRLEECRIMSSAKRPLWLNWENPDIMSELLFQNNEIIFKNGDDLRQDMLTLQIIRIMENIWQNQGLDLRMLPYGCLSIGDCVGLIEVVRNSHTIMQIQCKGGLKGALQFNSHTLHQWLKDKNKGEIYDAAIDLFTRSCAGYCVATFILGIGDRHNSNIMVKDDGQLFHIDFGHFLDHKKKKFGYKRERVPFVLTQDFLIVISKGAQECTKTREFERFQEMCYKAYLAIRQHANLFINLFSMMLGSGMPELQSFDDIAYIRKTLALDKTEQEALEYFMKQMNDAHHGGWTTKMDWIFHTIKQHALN
PI3Kalpha, sequence (P27986 whole entry partner, the tested form may be a part, canonical isoform): as the sequence (P27986 whole entry partner, the tested form may be a part, canonical isoform) above

For `C[C@@H]1CN(c2nc(-c3cnn(C)c3)ncc2C#N)CCN1C(=O)C1CC12CCCC2` (stereo partly drawn) [Compound 4-7, 2-(1-methyl-1H-pyrazol-4-yl)-4-[(3R)-3-methyl-4-(spiro[2.4]hept-1-ylcarbonyl)piperazin-1-yl]pyrimidine-5-carbonitrile], the “Selectivity versus PI3Kalpha” value [1] was over 10 and the IC50 [2] was 87 nM.

In the case of `C[C@@H]1C[C@H]1C(=O)N1CCN(c2nc(-c3cnn(C)c3)ncc2C#N)C[C@H]1C` [Compound 4-8, 4-[(3R)-3-methyl-4-{[(1R,2R)-2-methylcyclopropyl]carbonyl}piperazin-1-yl]-2-(1-methyl-1H-pyrazol-4-yl)pyrimidine-5-carbonitrile], the “Selectivity versus PI3Kalpha” value [1] is reported as over 10 and the IC50 [2] is reported as 32 nM.

`C[C@@H]1C[C@@H]1C(=O)N1CCN(c2nc(-c3cnn(C)c3)ncc2C#N)C[C@H]1C` [Compound 4-9, 4-[(3R)-3-methyl-4-{[(1S,2R)-2-methylcyclopropyl]carbonyl}piperazin-1-yl]-2-(1-methyl-1H-pyrazol-4-yl)pyrimidine-5-carbonitrile] was tested, and the “Selectivity versus PI3Kalpha” value [1] was over 10 and the IC50 [2] was 80 nM.

In the case of `C[C@@H]1CN(c2nc(-c3cnn(C)c3)ncc2C#N)CCN1c1cccc([N+](=O)[O-])c1` [Compound 4-11, 4-[(3R)-3-methyl-4-(3-nitrophenyl)piperazin-1-yl]-2-(1-methyl-1H-pyrazol-4-yl)pyrimidine-5-carbonitrile], the “Selectivity versus PI3Kalpha” value [1] is reported as over 10 and the IC50 [2] is reported as 78 nM.

With `C[C@@H]1CN(c2nc(-c3cnn(C)c3)ncc2C#N)CCN1c1cccc(C#N)c1` [Compound 4-12, 4-[(3R)-4-(3-cyanophenyl)-3-methylpiperazin-1-yl]-2-(1-methyl-1H-pyrazol-4-yl)pyrimidine-5-carbonitrile] the “Selectivity versus PI3Kalpha” value [1] was over 10 and the IC50 [2] was 86 nM.

`C[C@@H]1CN(c2nc(-c3cnn(C)c3)ncc2C#N)CCN1c1cccc(S(C)(=O)=O)c1` [Compound 4-13, 4-{(3R)-3-methyl-4-[3-(methylsulfonyl)phenyl]piperazin-1-yl}-2-(1-methyl-1H-pyrazol-4-yl)pyrimidine-5-carbonitrile] was tested, and the “Selectivity versus PI3Kalpha” value [1] was over 10 and the IC50 [2] was 30 nM.

`C[C@@H]1CN(c2ncc(C#CCO)c(-c3cnn(C)c3)n2)CCN1C(=O)C1CC1` [Compound 5-1, 3-{2-[(3R)-4-(cyclopropylcarbonyl)-3-methylpiperazin-1-yl]-4-(1-methyl-1H-pyrazol-4-yl)pyrimidin-5-yl}prop-2-yn-1-ol] was tested, and the “Selectivity versus PI3Kalpha” value [1] was over 10 and the IC50 [2] was 19 nM.

For `C[C@@H]1CN(c2nc(C#N)cc(-c3cnn(C)c3)n2)CCN1C(=O)C1CC1` [Compound 5-2, 2-[(3R)-4-(cyclopropylcarbonyl)-3-methylpiperazin-1-yl]-6-(1-methyl-1H-pyrazol-4-yl)pyrimidine-4-carbonitrile], the “Selectivity versus PI3Kalpha” value [1] was over 10 and the IC50 [2] was 240 nM.

For `C[C@@H]1CN(c2cc(C#N)nc(-c3cnn(C)c3)n2)CCN1C(=O)C1CC1` [Compound 5-3, 6-[(3R)-4-(cyclopropylcarbonyl)-3-methylpiperazin-1-yl]-2-(1-methyl-1H-pyrazol-4-yl)pyrimidine-4-carbonitrile], the “Selectivity versus PI3Kalpha” value [1] was over 10 and the IC50 [2] was 240 nM.

In the case of `C[C@@H]1CN(c2ncc(C#N)c(-c3cnn(C)c3)n2)CCN1C(=O)C1CC1` [Compound 5-4, 2-[(3R)-4-(cyclopropylcarbonyl)-3-methylpiperazin-1-yl]-4-(1-methyl-1H-pyrazol-4-yl)pyrimidine-5-carbonitrile], the “Selectivity versus PI3Kalpha” value [1] is reported as over 10 and the IC50 [2] is reported as 21 nM.

For `CC(C)c1cnc(-c2cnc(N3CCN(C(=O)C4CC4)[C@H](C)C3)nc2-c2cnn(C)c2)o1` [Compound 5-5, 2-[(3R)-4-(cyclopropylcarbonyl)-3-methylpiperazin-1-yl]-5-[5-(1-methylethyl)-1,3-oxazol-2-yl]-4-(1-methyl-1H-pyrazol-4-yl)pyrimidine], the “Selectivity versus PI3Kalpha” value [1] was over 10 and the IC50 [2] was 410 nM.

With `CC(C)C[C@@H]1CN(c2nc(-c3cnn(C)c3)ncc2C#N)CCN1C(=O)C1CC1` [Compound 5-6, 4-[(3R)-4-(cyclopropylcarbonyl)-3-(2-methylpropyl)piperazin-1-yl]-2-(1-methyl-1H-pyrazol-4-yl)pyrimidine-5-carbonitrile] the “Selectivity versus PI3Kalpha” value [1] was over 10 and the IC50 [2] was 190 nM.

`Cn1cc(-c2ncc(C#N)c(N3CCN(C(=O)C4CC4)[C@H](CO)C3)n2)cn1` [Compound 5-7, 4-[(3S)-4-(cyclopropylcarbonyl)-3-(hydroxymethyl)piperazin-1-yl]-2-(1-methyl-1H-pyrazol-4-yl)pyrimidine-5-carbonitrile] was tested, and the “Selectivity versus PI3Kalpha” value [1] was over 10 and the IC50 [2] was 760 nM.

With `CC(C)C#Cc1cnc(N2CCN(C(=O)C3CC3)[C@H](C)C2)nc1-c1cnn(C)c1` [Compound 5-8, 2-[(3R)-4-(cyclopropylcarbonyl)-3-methylpiperazin-1-yl]-5-(3-methylbut-1-yn-1-yl)-4-(1-methyl-1H-pyrazol-4-yl)pyrimidine] the “Selectivity versus PI3Kalpha” value [1] was over 10 and the IC50 [2] was 12 nM.

With `C#Cc1cnc(N2CCN(C(=O)C3CC3)[C@H](C)C2)nc1-c1cnn(C)c1` [Compound 5-9, 2-[(3R)-4-(cyclopropylcarbonyl)-3-methylpiperazin-1-yl]-5-ethynyl-4-(1-methyl-1H-pyrazol-4-yl)pyrimidine] the “Selectivity versus PI3Kalpha” value [1] was over 10 and the IC50 [2] was 50 nM.

For `CSc1cnc(N2CCN(C(=O)C3CC3)[C@H](C)C2)nc1-c1cnn(C)c1` [Compound 5-10, 2-[(3R)-4-(cyclopropylcarbonyl)-3-methylpiperazin-1-yl]-4-(1-methyl-1H-pyrazol-4-yl)-5-(methylsulfanyl)pyrimidine], the “Selectivity versus PI3Kalpha” value [1] was over 10 and the IC50 [2] was 340 nM.

For `C[C@@H]1CN(c2ncc(C(F)F)c(-c3cnn(C)c3)n2)CCN1C(=O)C1CC1` [Compound 5-11, 2-[(3R)-4-(cyclopropylcarbonyl)-3-methylpiperazin-1-yl]-5-(difluoromethyl)-4-(1-methyl-1H-pyrazol-4-yl)pyrimidine], the “Selectivity versus PI3Kalpha” value [1] was over 10 and the IC50 [2] was 370 nM.

For `CCOC(=O)c1cnc(N2CCN(C(=O)C3CC3)[C@H](C)C2)nc1-c1cnn(C)c1` [Compound 5-12, ethyl 2-[(3R)-4-(cyclopropylcarbonyl)-3-methylpiperazin-1-yl]-4-(1-methyl-1H-pyrazol-4-yl)pyrimidine-5-carboxylate], the “Selectivity versus PI3Kalpha” value [1] was over 10 and the IC50 [2] was 180 nM.

For `C[C@@H]1CN(c2nc(-c3cnn(C)c3)ncc2Cl)CCN1C(=O)C1CC1` [Compound 5-13, 5-chloro-4-[(3R)-4-(cyclopropylcarbonyl)-3-methylpiperazin-1-yl]-2-(1-methyl-1H-pyrazol-4-yl)pyrimidine], the “Selectivity versus PI3Kalpha” value [1] was over 10 and the IC50 [2] was 620 nM.

With `C[C@@H]1CN(c2nc(-c3cnn(C)c3)nc(N)c2C#N)CCN1C(=O)C1CC1` [Compound 6-1, 4-amino-6-[(3R)-4-(cyclopropylcarbonyl)-3-methylpiperazin-1-yl]-2-(1-methyl-1H-pyrazol-4-yl)pyrimidine-5-carbonitrile] the “Selectivity versus PI3Kalpha” value [1] was over 10 and the IC50 [2] was 130 nM.

With `CC(C)NC(=O)Nc1nc(-c2cnn(C)c2)nc(N2CCN(C(=O)C3CC3)[C@H](C)C2)c1C#N` [Compound 6-2, 1-{5-cyano-6-[(3R)-4-(cyclopropylcarbonyl)-3-methylpiperazin-1-yl]-2-(1-methyl-1H-pyrazol-4-yl)pyrimidin-4-yl}-3-(1-methylethyl)urea] the “Selectivity versus PI3Kalpha” value [1] was over 10 and the IC50 [2] was 5.6 nM.

With `CC(=O)Nc1nc(-c2cnn(C)c2)nc(N2CCN(C(=O)C3CC3)[C@H](C)C2)c1C#N` [Compound 6-3, N-{5-cyano-6-[(3R)-4-(cyclopropylcarbonyl)-3-methylpiperazin-1-yl]-2-(1-methyl-1H-pyrazol-4-yl)pyrimidin-4-yl}acetamide] the “Selectivity versus PI3Kalpha” value [1] was over 10 and the IC50 [2] was 480 nM.

For `C[C@@H]1CN(c2nc(-c3cnn(C)c3)nc(NCC(F)(F)F)c2C#N)CCN1C(=O)C1CC1` [Compound 6-4, 4-[(3R)-4-(cyclopropylcarbonyl)-3-methylpiperazin-1-yl]-2-(1-methyl-1H-pyrazol-4-yl)-6-[(2,2,2-trifluoroethyl)amino]pyrimidine-5-carbonitrile], the “Selectivity versus PI3Kalpha” value [1] was over 10 and the IC50 [2] was 8.3 nM.

`C[C@@H]1CN(c2nc(-c3cnn(C)c3)nc(Cl)c2C#N)CCN1C(=O)C1CC1` [Compound 6-5, 4-chloro-6-[(3R)-4-(cyclopropylcarbonyl)-3-methylpiperazin-1-yl]-2-(1-methyl-1H-pyrazol-4-yl)pyrimidine-5-carbonitrile] was tested, and the “Selectivity versus PI3Kalpha” value [1] was over 10 and the IC50 [2] was 140 nM.

With `CCc1nc(-c2cnn(C)c2)nc(N2CCN(C(=O)C3CC3)[C@H](C)C2)c1C#N` [Compound 6-6, 4-[(3R)-4-(cyclopropylcarbonyl)-3-methylpiperazin-1-yl]-6-ethyl-2-(1-methyl-1H-pyrazol-4-yl)pyrimidine-5-carbonitrile] the “Selectivity versus PI3Kalpha” value [1] was over 10 and the IC50 [2] was 220 nM.

In the case of `C[C@@H]1CN(c2nc(-c3cnn(C)c3)nc(NC3CCC3)c2C#N)CCN1C(=O)C1CC1` [Compound 6-7, 4-(cyclobutylamino)-6-[(3R)-4-(cyclopropylcarbonyl)-3-methylpiperazin-1-yl]-2-(1-methyl-1H-pyrazol-4-yl)pyrimidine-5-carbonitrile], the “Selectivity versus PI3Kalpha” value [1] is reported as over 10 and the IC50 [2] is reported as 80 nM.

`C[C@@H]1CN(c2nc(-c3cnn(C)c3)nc(Nc3ccccc3)c2C#N)CCN1C(=O)C1CC1` [Compound 6-8, 4-[(3R)-4-(cyclopropylcarbonyl)-3-methylpiperazin-1-yl]-2-(1-methyl-1H-pyrazol-4-yl)-6-(phenylamino)pyrimidine-5-carbonitrile] was tested, and the “Selectivity versus PI3Kalpha” value [1] was over 10 and the IC50 [2] was 19 nM.
